Experimental data taken from PubChem BioAssay AID2060492 (Molecular Pharmacology Branch, DTP, NCI, 2025).

Test system: 695427-040-R-J1-PDC complex spheroids, viability percent T/C
Test: Anticancer human tumor 695427-040-R-J1-PDC patient-derived colon adenocarcinoma cell line growth inhibition [GQUAD]
Conditions: for IC50: curve of first compound; for viability, T/C: stronger effect = lower value
From the text: DNA G-quadruplex Stabilizer Agents in Combinations in Complex Spheroids
A high-throughput screen of multi-cell type tumor spheroids was designed to identify active combinations of DNA G-quadruplex stabilizer agents and targeted small molecules. Complex spheroids include a stromal component modeled by human endothelial cells (HUVEC) and fibroblasts modeled by human mesenchymal stem cells (MSCs). The concentration ranges selected for each drug and investigational agent were based upon clinically achievable concentrations if the clinical Cmax of the agent was known.
Compounds. The drugs and investigational agents: pidnarulex (CX-5461; NSC782164), APTO-253 (NSC789042), BRACO-19 (NSC847499), peposertib (NSC802822), ceralasertib (NSC780249), elimusertib (NSC800525), camonsertib (NSC841442), AZD-1390 (NSC803789), olaparib (NSC753686), talazoparib (NSC767125), ART-558 (NSC835418), sotorasib (NSC818433), MRTX-1133 (NSC836407), SN-38 (NSC673596), topotecan (NSC609699), etoposide (NSC141540), doxorubicin (NSC123127), gemcitabine (NSC613327), 5-fluorouracil (NSC19893), paclitaxel (NSC125973), vemurafenib (NSC761431), panobinostat (NSC761190), R-306465 (JNJ-16241199; NSC773264), adavosertib (NSC754352), TP-3654 (NSC805149), carboplatin (NSC241240), KSQ-4279 (NSC840948), and staurosporine (NSC755774) were obtained from the National Cancer Institute (NCI) Developmental Therapeutics Program Chemical Repository (34). The FDA-approved anticancer drug set is available from the NCI Developmental Therapeutics Program. […] The stock solutions were prepared in dimethyl sulfoxide (DMSO, Sigma-Aldrich, St. Louis, MO, cat. D2650) at 800-fold the tested concentration and stored at -70 degrees C prior to their use. All drugs and investigational agents were tested over a range starting from a high concentration at or near the clinical Cmax and decreasing in half-log increments. If the clinical Cmax for an agent had not been determined, the highest concentration tested was 10 microM.
2.3 Cell Culture. All cells were maintained in an incubator at 37 degrees C and 5% CO2 with 95% humidity. The PDC lines were cultured according to standard operating procedures established by the NCI PDMR. All PDCs were thawed and cultured in Matrigel-coated flasks prepared with a working solution of 1X Ham's F-12 nutrient mix, without supplementation (Invitrogen, cat. 11765054), 100 U/mL penicillin-streptomycin (Invitrogen, cat. 15140122), and 2.5% Matrigel (Corning Inc., cat. 354248) for the first three passages. The 857933-349-R-J2-PDC line was cultured in 6C/Colon 1B media, which includes advanced DMEM/F-12 (Thermo Fisher Scientific, cat. 12634028), 10 mM HEPES (Thermo Fisher Scientific, cat. 15630080), 1X GlutaMAX supplement (Thermo Fisher Scientific, cat. 35050061), 0.1 mg/mL primocin (InvivoGen, cat. ant-pm-2), 10% defined fetal bovine serum, heat inactivated (HyClone Laboratories Inc., cat. SH30070.03HI), 50% L-WRN conditioned media (ATCC, cat. CRL-3276), 1.25 mM N-Acetyl-L-cysteine (Sigma-Aldrich, cat. A9165), 10 mM nicotinamide (Sigma-Aldrich, cat. N0636), 1X B-27 supplement (Thermo Fisher Scientific, cat. 17504044), 1X N-2 supplement (Thermo Fisher Scientific, cat. 17502048), 10 microM Y-27632 dihydrochloride (Tocris Bioscience, cat. 1254), and 50 ng/mL human EGF recombinant protein (Thermo Fisher Scientific, cat. PHG0311). The 485176-168-R4-J1-PDC line was cultured in Panc media, which includes all 6C/Colon 1B media components plus 100 ng/mL human FGF-10 (Thermo Fisher Scientific, cat. 100-26), 500 nM SB-431542 (Selleckchem, cat. S1067), and gastrin (Tocris, cat. 3006).
[…]

[1] = second compound 0.0316 µM, first compound 0.0316 µM
[2] = second compound 0.0316 µM, first compound 0.1 µM
[3] = second compound 0.0316 µM, first compound 0.316 µM
[4] = second compound 0.0316 µM, first compound 1 µM
[5] = second compound 0.0316 µM, first compound 3.16 µM
[6] = second compound 0.0316 µM, first compound 10 µM
[7] = second compound 0.1 µM, first compound 0.0316 µM
[8] = second compound 0.1 µM, first compound 0.1 µM
[9] = second compound 0.1 µM, first compound 0.316 µM
[10] = second compound 0.1 µM, first compound 1 µM
[11] = second compound 0.1 µM, first compound 3.16 µM
[12] = second compound 0.1 µM, first compound 10 µM
[13] = second compound 0.316 µM, first compound 0.0316 µM
[14] = second compound 0.316 µM, first compound 0.1 µM
[15] = second compound 0.316 µM, first compound 0.316 µM
[16] = second compound 0.316 µM, first compound 1 µM
[17] = second compound 0.316 µM, first compound 3.16 µM
[18] = second compound 0.316 µM, first compound 10 µM
[19] = second compound 1 µM, first compound 0.0316 µM
[20] = second compound 1 µM, first compound 0.1 µM
[21] = second compound 1 µM, first compound 0.316 µM
[22] = second compound 1 µM, first compound 1 µM
[23] = second compound 1 µM, first compound 3.16 µM
[24] = second compound 1 µM, first compound 10 µM
[25] = second compound 3.16 µM, first compound 0.0316 µM
[26] = second compound 3.16 µM, first compound 0.1 µM
[27] = second compound 3.16 µM, first compound 0.316 µM
[28] = second compound 3.16 µM, first compound 1 µM
[29] = second compound 3.16 µM, first compound 3.16 µM
[30] = second compound 3.16 µM, first compound 10 µM
[31] = second compound 10 µM, first compound 0.0316 µM
[32] = second compound 10 µM, first compound 0.1 µM
[33] = second compound 10 µM, first compound 0.316 µM
[34] = second compound 10 µM, first compound 1 µM
[35] = second compound 10 µM, first compound 3.16 µM
[36] = second compound 10 µM, first compound 10 µM
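Further: spheroids exposed to compounds for seven days before readout.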

## C=CCn1c(=O)c2cnc(Nc3ccc(N4CCN(C)CC4)cc3)nc2n1-c1cccc(C(C)(C)O)n1 + Cc1[nH]c2ccc(F)cc2c1-c1nc2c3cccnc3c3ncccc3c2[nH]1
Second compound 0.0316 µM
  IC50: 9.44 µM
Second compound 0.1 µM
  IC50: 6.67 µM
Second compound 0.316 µM
  IC50: 6.48 µM
Second compound 1 µM
  IC50: 5.42 µM
Second compound 3.16 µM
  IC50: 4.56 µM
Second compound 10 µM
  IC50: 4.4 µM
[1]
  viability, T/C: 102%
[2]
  viability, T/C: 104%
[3]
  viability, T/C: 94.3%
[4]
  viability, T/C: 108%
[5]
  viability, T/C: 105%
[6]
  viability, T/C: 47.1%
[7]
  viability, T/C: 114%
[8]
  viability, T/C: 99.8%
[9]
  viability, T/C: 103%
[10]
  viability, T/C: 113%
[11]
  viability, T/C: 99.3%
[12]
  viability, T/C: 23%
[13]
  viability, T/C: 105%
[14]
  viability, T/C: 94.1%
[15]
  viability, T/C: 95.6%
[16]
  viability, T/C: 97.2%
[17]
  viability, T/C: 95.6%
[18]
  viability, T/C: 22.4%
[19]
  viability, T/C: 81.6%
[20]
  viability, T/C: 88.2%
[21]
  viability, T/C: 93.1%
[22]
  viability, T/C: 89.3%
[23]
  viability, T/C: 79.8%
[24]
  viability, T/C: 16%
[25]
  viability, T/C: 72%
[26]
  viability, T/C: 72%
[27]
  viability, T/C: 70.3%
[28]
  viability, T/C: 64.8%
[29]
  viability, T/C: 70.7%
[30]
  viability, T/C: 7.06%
[31]
  viability, T/C: 75.4%
[32]
  viability, T/C: 76.8%
[33]
  viability, T/C: 71.5%
[34]
  viability, T/C: 71.5%
[35]
  viability, T/C: 67.8%
[36]
  viability, T/C: 6.01%

## COc1ncnc(C2CC2)c1-c1ncc2cnn(Cc3ccc(-c4nc(C(F)(F)F)cn4C(C)C)cc3)c2n1 + Cc1[nH]c2ccc(F)cc2c1-c1nc2c3cccnc3c3ncccc3c2[nH]1
Second compound 0.0316 µM
  IC50: > 10 µM
Second compound 0.1 µM
  IC50: > 10 µM
Second compound 0.316 µM
  IC50: > 10 µM
Second compound 1 µM
  IC50: > 10 µM
Second compound 3.16 µM
  IC50: > 10 µM
Second compound 10 µM
  IC50: > 10 µM
[1]
  viability, T/C: 98%
[2]
  viability, T/C: 96.7%
[3]
  viability, T/C: 92.9%
[4]
  viability, T/C: 106%
[5]
  viability, T/C: 112%
[6]
  viability, T/C: 70%
[7]
  viability, T/C: 107%
[8]
  viability, T/C: 93.9%
[9]
  viability, T/C: 98.5%
[10]
  viability, T/C: 98.4%
[11]
  viability, T/C: 100%
[12]
  viability, T/C: 71%
[13]
  viability, T/C: 99.5%
[14]
  viability, T/C: 91.9%
[15]
  viability, T/C: 94.6%
[16]
  viability, T/C: 106%
[17]
  viability, T/C: 105%
[18]
  viability, T/C: 65.6%
[19]
  viability, T/C: 91%
[20]
  viability, T/C: 86.3%
[21]
  viability, T/C: 101%
[22]
  viability, T/C: 96.3%
[23]
  viability, T/C: 94.1%
[24]
  viability, T/C: 67.8%
[25]
  viability, T/C: 76.5%
[26]
  viability, T/C: 77.5%
[27]
  viability, T/C: 73.3%
[28]
  viability, T/C: 80.1%
[29]
  viability, T/C: 98.4%
[30]
  viability, T/C: 66.5%
[31]
  viability, T/C: 82.2%
[32]
  viability, T/C: 73.5%
[33]
  viability, T/C: 83.1%
[34]
  viability, T/C: 81.8%
[35]
  viability, T/C: 95.4%
[36]
  viability, T/C: 73.8%
